# Experimental data taken from PubChem BioAssay AID652002 (Sanford-Burnham Center for Chemical Genomics, 2013).
# The source made the active and inactive calls. No rule for the calls is given here.
# Columns and labels:
# [1] = compound enhancement of TRAIL-induced cell killing – NB7 cells plus caspase-8, luminescence, panel, dose response (AID 652002); details: NB7 neuroblastoma +caspase-8, no TRAIL, compound-alone cytotoxicity counter-screen, luminescence viability, NB7+Caspase-8
# NB7+Caspase-8 = assay: as above; details: NB7 neuroblastoma +caspase-8, TRAIL sensitization, luminescence viability, with TRAIL
# [2] = target: Tumor necrosis factor receptor superfamily member 10B (Homo sapiens) (UniProt O14763); assay: as above; details: NB7 neuroblastoma +caspase-8, TRAIL sensitization, luminescence viability; NB7+Caspase-8; with TRAIL, mean of runs
# Tumor necrosis factor receptor superfamily member 10B (Homo sapiens), sequence (O14763 whole entry, looked up): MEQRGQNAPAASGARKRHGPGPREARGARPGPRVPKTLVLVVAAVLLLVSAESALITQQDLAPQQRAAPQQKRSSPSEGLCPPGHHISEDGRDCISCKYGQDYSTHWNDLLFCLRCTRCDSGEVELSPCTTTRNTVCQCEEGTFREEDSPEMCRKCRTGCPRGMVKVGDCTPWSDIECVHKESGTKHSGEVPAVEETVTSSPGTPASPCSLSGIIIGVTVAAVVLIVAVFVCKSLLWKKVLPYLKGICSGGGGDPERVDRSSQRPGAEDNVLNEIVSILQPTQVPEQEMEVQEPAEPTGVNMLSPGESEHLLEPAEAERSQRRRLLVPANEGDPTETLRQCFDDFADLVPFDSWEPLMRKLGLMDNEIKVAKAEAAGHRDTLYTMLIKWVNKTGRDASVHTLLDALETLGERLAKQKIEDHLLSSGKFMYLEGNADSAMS
# [3] = run 1, single replicate panel EC50
# [4] = run 2, single replicate panel EC50
Compound,EC50 ([1]; mean of runs),"EC50 [1, 3] [µM]","EC50 [1, 4] [µM]",EC50 (NB7+Caspase-8; [3]) [µM],EC50 (NB7+Caspase-8; [4]) [µM],EC50 [2]
Cc1ccnc(NC(=O)Nc2ccc3c(c2)OCO3)c1,> 12.5 µM (inactive),> 12.5,> 12.5,> 12.5,> 12.5,> 12.5 µM (inactive)
Cc1cc(-c2ccccc2)nc(Nc2nc3c(C)cccc3c(=O)[nH]2)n1,> 12.5 µM (inactive),> 12.5,> 12.5,> 12.5,> 12.5,> 12.5 µM (inactive)
CN(C)c1ccc(N/C=C/C(=O)c2ccco2)cc1,inactive,7.62,> 12.5,7.78,6.42,inactive
CCOC(=O)C(=C1Nc2ccccc2N1)n1c(-c2cccnc2)nc2ccccc21,inactive,> 12.5,10.5,> 12.5,9.47,inactive
O=C1CCCc2nc(N3CCc4ccccc43)ncc21,> 12.5 µM (inactive),> 12.5,> 12.5,> 12.5,> 12.5,> 12.5 µM (inactive)
COc1ccc(-c2nnc(SCC(=O)c3[nH]c(C)c(C(C)=O)c3C)o2)cc1,> 12.5 µM (inactive),> 12.5,> 12.5,> 12.5,> 12.5,> 12.5 µM (inactive)
O=C(NNC(=O)c1cc(OCC(F)(F)F)ccc1OCC(F)(F)F)c1ccc(Cl)c(Cl)c1,> 12.5 µM (inactive),> 12.5,> 12.5,> 12.5,> 12.5,> 12.5 µM (inactive)
COC(=O)c1ccc(/C=C/c2nc3ccccc3c(=O)[nH]2)cc1,> 12.5 µM (inactive),> 12.5,> 12.5,> 12.5,> 12.5,> 12.5 µM (inactive)
COC(=O)c1ccc(/C=C(\C#N)c2ccccn2)cc1,> 12.5 µM (inactive),> 12.5,> 12.5,> 12.5,> 12.5,> 12.5 µM (inactive)
O=C(NCC1CCCO1)c1ccc2c3n(nc2c1)-c1ccccc1CO3 (stereo unspecified),> 12.5 µM (inactive),> 12.5,> 12.5,> 12.5,8.3,inactive
CSc1ccc(/C=C/c2ccc3cccc(O)c3n2)cc1,inactive,7.93,> 12.5,> 12.5,6.31,inactive
c1ccc(Nc2nnc(-c3cccnc3)s2)cc1,> 12.5 µM (inactive),> 12.5,> 12.5,> 12.5,5.66,inactive
CCC(C)c1ccc(O)c(NC(=S)NC(=O)c2cccs2)c1 (stereo unspecified),inactive,5.97,8.18,> 12.5,7.09,inactive
CCOC(=O)c1ccc(N/C=C/C(=O)c2ccco2)cc1,> 12.5 µM (inactive),> 12.5,> 12.5,> 12.5,> 12.5,> 12.5 µM (inactive)
CCOc1ccc2nc(NC(=O)c3cccc(-c4cc5ccccc5oc4=O)c3)sc2c1,> 12.5 µM (inactive),> 12.5,> 12.5,> 12.5,> 12.5,> 12.5 µM (inactive)
CCCCc1nc(NCCN)c(C#N)c2c1CSC(C)(C)C2,> 12.5 µM (inactive),> 12.5,> 12.5,> 12.5,> 12.5,> 12.5 µM (inactive)

Compound,EC50 ([1]; mean of runs),"EC50 [1, 3] [µM]","EC50 [1, 4] [µM]",EC50 (NB7+Caspase-8; [3]) [µM],EC50 (NB7+Caspase-8; [4]) [µM],EC50 [2]
COCCNC(=O)c1cc(-c2ccc(-c3ccccc3)cc2)nc2ccccc12,inactive,> 12.5,2.09,> 12.5,6.28,inactive
CCSc1ccc(-c2ccc(C)cc2)nn1,inactive,> 12.5,8.12,> 12.5,7.07,inactive
CCCC1(CCC)C(=O)NC(=NCc2ccccc2)NC1=O,> 12.5 µM (inactive),> 12.5,> 12.5,> 12.5,> 12.5,> 12.5 µM (inactive)
O=c1[nH]c(=S)[nH]c2c1C(c1ccc(Cl)c(Cl)c1)OC(CCc1ccccc1)C2 (stereo unspecified),> 12.5 µM (inactive),> 12.5,> 12.5,> 12.5,> 12.5,> 12.5 µM (inactive)
COc1cccc(C(=O)Nc2ccc(C3CC3(Cl)Cl)cc2)c1 (stereo unspecified),> 12.5 µM (inactive),> 12.5,> 12.5,> 12.5,> 12.5,> 12.5 µM (inactive)
CCOc1ccc(-c2cc(C(=O)N3CCC(C)CC3)c3ccccc3n2)cc1,> 12.5 µM (inactive),> 12.5,> 12.5,> 12.5,11.5,inactive
Clc1nc(Cl)c2ncn(-c3ccccc3)c2n1,> 12.5 µM (inactive),> 12.5,> 12.5,> 12.5,> 12.5,> 12.5 µM (inactive)
CCOC(=O)c1cnc2c(-c3ccccc3)cnn2c1N,> 12.5 µM (inactive),> 12.5,> 12.5,> 12.5,> 12.5,> 12.5 µM (inactive)
CCOc1ccc(NC(=O)c2ccco2)cc1,inactive,6.87,10.7,> 12.5,6.9,inactive
O=C(NC1=NCCS1)c1cc2ccccc2o1,inactive,> 12.5,4.22,5.35,10.4,inactive
NNC(=O)C1CCCn2c1nc1sc3c(c1c2=O)CCCC3 (stereo unspecified),> 12.5 µM (inactive),> 12.5,> 12.5,> 12.5,> 12.5,> 12.5 µM (inactive)
COc1ccc(/C=N/Nc2nc3ccccc3c(=O)n2-c2ccccc2)cc1OC,inactive,7.35,9.86,> 12.5,9.41,inactive
CCOC(=O)[C@]12Cc3cc4ccccc4cc3[C@H]1N(Cc1ccccc1)C(=O)c1cc(OC)ccc12,> 12.5 µM (inactive),> 12.5,> 12.5,> 12.5,> 12.5,> 12.5 µM (inactive)
CC1(Cc2ccc(OC(F)(F)F)cc2)C(=O)Nc2ccc(S(=O)(=O)NC3CCCCC3)cc21 (stereo unspecified),inactive,> 12.5,12.3,> 12.5,> 12.5,> 12.5 µM (inactive)
COc1ccccc1C=NNC(=O)NN=Cc1ccccc1OC,inactive,8.5,10.3,> 12.5,7.21,inactive
